# ChEMBL document CHEMBL3994647, “Synthesis and in vitro cytotoxic evaluation of new 1H-benzo[d]imidazole derivatives of dehydroabietic acid” (Bioorg Med Chem Lett, 2017)
# pIC50: −log10 of the molar value.
# Tests used:
# HepG2 = experiment: Cytotoxicity against human HepG2 cells assessed as reduction in cell viability after 48 hrs by MTT assay; format: functional, cell-based; conditions: HepG2, 48 h
# L02 = experiment: Cytotoxicity against human LO2 cells assessed as reduction in cell viability after 48 hrs by MTT assay; format: cell-based; conditions: L02, 48 h
# SMMC-7721 [1] = experiment: Cytotoxicity against human SMMC7721 cells assessed as reduction in cell viability after 48 hrs by MTT assay; format: functional, cell-based; conditions: SMMC-7721, 48 h
# SMMC-7721 [2] = experiment: Cell cycle arrest in human SMMC7721 cells assessed as accumulation at S phase at 0.18 uM after 24 hrs by propidium iodide staining based flow cytometry (reference value: 23.68%); format: functional
# SMMC-7721 [3] = experiment: Cell cycle arrest in human SMMC7721 cells assessed as accumulation at S phase at 0.72 uM after 24 hrs by propidium iodide staining based flow cytometry (reference value: 23.68%); format: functional
# SMMC-7721 [4] = experiment: Induction of apoptosis in human SMMC7721 cells assessed as live cells at 0.36 uM after 24 hrs by Annexin V-APC/7-AAD staining based flow cytometry (reference value: 81.07%); format: functional
# SMMC-7721 [5] = experiment: Induction of apoptosis in human SMMC7721 cells assessed as live cells at 0.18 uM after 24 hrs by Annexin V-APC/7-AAD staining based flow cytometry (reference value: 81.07%); format: functional
# SMMC-7721 [6] = experiment: Induction of apoptosis in human SMMC7721 cells assessed as early apoptotic cells at 0.72 uM after 24 hrs by Annexin V-APC/7-AAD staining based flow cytometry (reference value: 7.44%); format: functional
# SMMC-7721 [7] = experiment: Cell cycle arrest in human SMMC7721 cells assessed as accumulation at G0/G1 phase at 0.18 uM after 24 hrs by propidium iodide staining based flow cytometry (reference value: 72.89%); format: functional
# SMMC-7721 [8] = experiment: Cell cycle arrest in human SMMC7721 cells assessed as accumulation at G2/M phase at 0.18 uM after 24 hrs by propidium iodide staining based flow cytometry (reference value: 3.43%); format: functional
# SMMC-7721 [9] = experiment: Induction of apoptosis in human SMMC7721 cells assessed as early apoptotic cells at 0.18 uM after 24 hrs by Annexin V-APC/7-AAD staining based flow cytometry (reference value: 7.44%); format: functional
# SMMC-7721 [10] = experiment: Induction of apoptosis in human SMMC7721 cells assessed as necrotic cells at 0.72 uM after 24 hrs by Annexin V-APC/7-AAD staining based flow cytometry (reference value: 0.77%); format: functional
# SMMC-7721 [11] = experiment: Cell cycle arrest in human SMMC7721 cells assessed as accumulation at G2/M phase after 24 hrs by propidium iodide staining based flow cytometry; format: functional
# SMMC-7721 [12] = experiment: Induction of apoptosis in human SMMC7721 cells assessed as late apoptotic cells at 0.18 uM after 24 hrs by Annexin V-APC/7-AAD staining based flow cytometry (reference value: 10.72%); format: functional
# SMMC-7721 [13] = experiment: Induction of apoptosis in human SMMC7721 cells assessed as live cells at 0.72 uM after 24 hrs by Annexin V-APC/7-AAD staining based flow cytometry (reference value: 81.07%); format: functional
# SMMC-7721 [14] = experiment: Induction of apoptosis in human SMMC7721 cells assessed as necrotic cells at 0.18 uM after 24 hrs by Annexin V-APC/7-AAD staining based flow cytometry (reference value: 0.77%); format: functional
# SMMC-7721 [15] = experiment: Induction of apoptosis in human SMMC7721 cells assessed as early apoptotic cells at 0.36 uM after 24 hrs by Annexin V-APC/7-AAD staining based flow cytometry (reference value: 7.44%); format: functional
# SMMC-7721 [16] = experiment: Cell cycle arrest in human SMMC7721 cells assessed as accumulation at S phase at 0.36 uM after 24 hrs by propidium iodide staining based flow cytometry (reference value: 23.68%); format: functional
# SMMC-7721 [17] = experiment: Cell cycle arrest in human SMMC7721 cells assessed as accumulation at G2/M phase at 0.72 uM after 24 hrs by propidium iodide staining based flow cytometry (reference value: 3.43%); format: functional
# SMMC-7721 [18] = experiment: Induction of apoptosis in human SMMC7721 cells assessed as late apoptotic cells at 0.36 uM after 24 hrs by Annexin V-APC/7-AAD staining based flow cytometry (reference value: 10.72%); format: functional
# SMMC-7721 [19] = experiment: Cell cycle arrest in human SMMC7721 cells assessed as accumulation at G2/M phase at 0.36 uM after 24 hrs by propidium iodide staining based flow cytometry (reference value: 3.43%); format: functional
# SMMC-7721 [20] = experiment: Induction of apoptosis in human SMMC7721 cells assessed as late apoptotic cells at 0.72 uM after 24 hrs by Annexin V-APC/7-AAD staining based flow cytometry (reference value: 10.72%); format: functional
# SMMC-7721 [21] = experiment: Induction of apoptosis in human SMMC7721 cells after 24 hrs by Annexin V-APC/7-AAD staining based flow cytometry; format: functional, cell-based
# SMMC-7721 [22] = experiment: Cell cycle arrest in human SMMC7721 cells assessed as accumulation at G0/G1 phase at 0.72 uM after 24 hrs by propidium iodide staining based flow cytometry (reference value: 72.89%); format: functional
# SMMC-7721 [23] = experiment: Cell cycle arrest in human SMMC7721 cells assessed as accumulation at G0/G1 phase at 0.36 uM after 24 hrs by propidium iodide staining based flow cytometry (reference value: 72.89%); format: functional
# SMMC-7721 [24] = experiment: Induction of apoptosis in human SMMC7721 cells assessed as necrotic cells at 0.36 uM after 24 hrs by Annexin V-APC/7-AAD staining based flow cytometry (reference value: 0.77%); format: functional
compound,measurement,setting,value
COC(=O)[C@]1(C)CCC[C@]2(C)c3cc(Br)c4nc(N)[nH]c4c3CC[C@@H]12,pIC50,HepG2,4.82
same,pIC50,L02,< 4.30
same,pIC50,SMMC-7721 [1],5.06
COC(=O)[C@]1(C)CCC[C@]2(C)c3cc(Br)c4nc(/N=C/c5cc(C)ccc5O)[nH]c4c3CC[C@@H]12,pIC50,HepG2,6.92
same,pIC50,L02,5.52
same,pIC50,SMMC-7721 [1],6.25
CCN(CC)c1ccc(/C=N/c2nc3c(Br)cc4c(c3[nH]2)CC[C@H]2[C@](C)(C(=O)OC)CCC[C@]42C)c(O)c1,pIC50,HepG2,6.80
same,pIC50,L02,5.54
same,pIC50,SMMC-7721 [1],6.06
COC(=O)[C@]1(C)CCC[C@]2(C)c3cc(Br)c4nc(NCc5ccc(F)cc5O)[nH]c4c3CC[C@@H]12,pIC50,HepG2,5.34
same,pIC50,L02,4.66
same,pIC50,SMMC-7721 [1],4.98
COC(=O)[C@]1(C)CCC[C@]2(C)c3cc(Br)c4nc(/N=C/c5cc(Br)ccc5O)[nH]c4c3CC[C@@H]12,pIC50,HepG2,6.14
same,pIC50,L02,5.14
same,pIC50,SMMC-7721 [1],5.55
COC(=O)[C@]1(C)CCC[C@]2(C)c3cc(Br)c4nc(NCc5cc(C)ccc5O)[nH]c4c3CC[C@@H]12,pIC50,HepG2,5.21
same,pIC50,L02,4.76
same,pIC50,SMMC-7721 [1],6.08
COC(=O)[C@]1(C)CCC[C@]2(C)c3cc(Br)c4nc(/N=C/c5cc(F)ccc5O)[nH]c4c3CC[C@@H]12,Activity,SMMC-7721 [2],17.11%
same,Activity,SMMC-7721 [3],22.69%
same,Activity,SMMC-7721 [4],59.86%
same,Activity,SMMC-7721 [5],75.91%
same,Activity,SMMC-7721 [6],9.75%
same,Activity,SMMC-7721 [7],76.93%
same,Activity,SMMC-7721 [8],5.96%
same,Activity,SMMC-7721 [9],12.71%
same,Activity,SMMC-7721 [10],1%
same,Activity,SMMC-7721 [11],Dose-dependent effect
same,Activity,SMMC-7721 [12],10.44%
same,pIC50,HepG2,6.21
same,Activity,SMMC-7721 [13],7.97%
same,Activity,SMMC-7721 [14],0.95%
same,Activity,SMMC-7721 [15],29.05%
same,Activity,SMMC-7721 [16],19.61%
same,Activity,SMMC-7721 [17],10.91%
same,pIC50,L02,5.41
same,Activity,SMMC-7721 [18],10.21%
same,Activity,SMMC-7721 [19],6.45%
same,Activity,SMMC-7721 [20],81.27%
same,Activity,SMMC-7721 [21],Dose-dependent effect
same,Activity,SMMC-7721 [22],66.4%
same,pIC50,SMMC-7721 [1],6.44
same,Activity,SMMC-7721 [23],73.94%
same,Activity,SMMC-7721 [24],0.87%
COC(=O)[C@]1(C)CCC[C@]2(C)c3cc(Br)c4nc(/N=C/c5cc([N+](=O)[O-])ccc5O)[nH]c4c3CC[C@@H]12,pIC50,HepG2,5.62
same,pIC50,L02,5.06
same,pIC50,SMMC-7721 [1],5.89
COC(=O)[C@]1(C)CCC[C@]2(C)c3cc(Br)c4nc(NCc5cc(Cl)cc(Cl)c5O)[nH]c4c3CC[C@@H]12,pIC50,HepG2,5.62
same,pIC50,L02,5.14
same,pIC50,SMMC-7721 [1],6.03
COC(=O)[C@]1(C)CCC[C@]2(C)c3cc(Br)c4nc(NCc5ccccc5O)[nH]c4c3CC[C@@H]12,pIC50,HepG2,4.65
same,pIC50,L02,< 4.30
same,pIC50,SMMC-7721 [1],5.50
COC(=O)[C@]1(C)CCC[C@]2(C)c3cc(Br)c4nc(NCc5cc([N+](=O)[O-])ccc5O)[nH]c4c3CC[C@@H]12,pIC50,HepG2,5.26
same,pIC50,L02,4.74
same,pIC50,SMMC-7721 [1],5.86
COC(=O)[C@]1(C)CCC[C@]2(C)c3cc(Br)c4nc(NCc5cc(F)ccc5O)[nH]c4c3CC[C@@H]12,pIC50,HepG2,5.34
same,pIC50,L02,4.50
same,pIC50,SMMC-7721 [1],4.98
COC(=O)[C@]1(C)CCC[C@]2(C)c3cc(Br)c4nc(/N=C/c5cccc(F)c5O)[nH]c4c3CC[C@@H]12,pIC50,HepG2,6.37
same,pIC50,L02,5.08
same,pIC50,SMMC-7721 [1],5.70
COC(=O)[C@]1(C)CCC[C@]2(C)c3cc(Br)c4nc(NCc5cc(Cl)ccc5O)[nH]c4c3CC[C@@H]12,pIC50,HepG2,4.93
same,pIC50,L02,4.57
same,pIC50,SMMC-7721 [1],5.50
COC(=O)[C@]1(C)CCC[C@]2(C)c3cc(Br)c4nc(NCc5ccc6ccccc6c5O)[nH]c4c3CC[C@@H]12,pIC50,HepG2,4.67
same,pIC50,L02,< 4.30
same,pIC50,SMMC-7721 [1],4.65
COC(=O)[C@]1(C)CCC[C@]2(C)c3cc(Br)c4nc(/N=C/c5cc(Cl)ccc5O)[nH]c4c3CC[C@@H]12,pIC50,HepG2,5.74
same,pIC50,L02,5.18
same,pIC50,SMMC-7721 [1],5.66
COC(=O)[C@]1(C)CCC[C@]2(C)c3cc(Br)c4nc(/N=C/c5cc(Cl)cc(Cl)c5O)[nH]c4c3CC[C@@H]12,pIC50,HepG2,6.16
same,pIC50,L02,5.14
same,pIC50,SMMC-7721 [1],5.76
COC(=O)[C@]1(C)CCC[C@]2(C)c3cc(Br)c([N+](=O)[O-])c([N+](=O)[O-])c3CC[C@@H]12,pIC50,HepG2,4.47
same,pIC50,L02,< 4.30
same,pIC50,SMMC-7721 [1],4.53
CCN(CC)c1ccc(CNc2nc3c(Br)cc4c(c3[nH]2)CC[C@H]2[C@](C)(C(=O)OC)CCC[C@]42C)c(O)c1,pIC50,HepG2,5.47
same,pIC50,L02,4.91
same,pIC50,SMMC-7721 [1],5.42
COC(=O)[C@]1(C)CCC[C@]2(C)c3cc(Br)c4nc(/N=C/c5ccc6ccccc6c5O)[nH]c4c3CC[C@@H]12,pIC50,HepG2,5.97
same,pIC50,L02,4.97
same,pIC50,SMMC-7721 [1],5.68
COC(=O)[C@]1(C)CCC[C@]2(C)c3cc(Br)c4nc(/N=C/c5ccccc5O)[nH]c4c3CC[C@@H]12,pIC50,HepG2,6.68
same,pIC50,L02,5.20
same,pIC50,SMMC-7721 [1],5.61
COc1cc([C@@H]2c3cc4c(cc3[C@@H](O[C@@H]3O[C@@H]5CO[C@@H](C)O[C@H]5[C@H](O)[C@H]3O)[C@H]3COC(=O)[C@H]23)OCO4)cc(OC)c1O [ETOPOSIDE],pIC50,HepG2,6.08
same,pIC50,L02,5.42
same,pIC50,SMMC-7721 [1],6.82
COC(=O)[C@]1(C)CCC[C@]2(C)c3cc(Br)c4nc(/N=C/c5ccc(F)cc5O)[nH]c4c3CC[C@@H]12,pIC50,HepG2,5.91
same,pIC50,L02,4.72
same,pIC50,SMMC-7721 [1],4.91
COC(=O)[C@]1(C)CCC[C@]2(C)c3cc(Br)c4nc(NCc5cc(Br)ccc5O)[nH]c4c3CC[C@@H]12,pIC50,HepG2,5.38
same,pIC50,L02,4.67
same,pIC50,SMMC-7721 [1],5.40
COC(=O)[C@]1(C)CCC[C@]2(C)c3cc(Br)c4nc(NCc5cccc(F)c5O)[nH]c4c3CC[C@@H]12,pIC50,HepG2,5.78
same,pIC50,L02,4.90
same,pIC50,SMMC-7721 [1],5.37
COC(=O)[C@]1(C)CCC[C@]2(C)c3cc(Br)c(N)c(N)c3CC[C@@H]12,pIC50,HepG2,< 4.30
same,pIC50,L02,< 4.30
same,pIC50,SMMC-7721 [1],< 4.30
